By melting point is commonly meant the temperature of the solid-liquid transition.

Data set [1] relates to Enterococcus faecalis PIU 1967. As to the kind of experiment: Assay A: in vitro antibacterial activity, agar dilution MIC. It counts as cell-based. The conditions noted are these: Table 1, Assay A, BHI agar, 35-37° C., about 20 to 24 hours; code B = Enterococcus faecalis PIU 1967; unit assumed. Here is the method: (§1) Assay A. Determination of Biological Activity In Vitro Assay of Antibacterial Activity
(§2) Representative compounds of the invention were assayed in vitro for antibacterial activity. Twelve petri dishes containing successive aqueous dilutions of the test compound mixed with sterilized Brain Heart Infusion (BHI) agar (Difco 0418-01-5) (10 mL) were prepared. Each plate was inoculated with 1:100 (or 1:10 for slow-growing strains, such as Micrococcus and Streptococcus) dilutions of up to 32 different microorganisms using a Steers replicator block. The inoculated plates were incubated at 35-37° C. for about 20 to about 24 hours. In addition, a control plate with BHI agar and no test compound was prepared and incubated at the beginning and end of each test.
(§3) An additional plate containing a compound having known susceptibility patterns for the organisms being tested and belonging to the same antibiotic class as the test compound was also prepared and incubated as a further control and to provide test-to-test comparability. Ciprofloxacin was used for this purpose.
(§4) After incubation, each plate was visually inspected. The minimum inhibitory concentration (MIC) was defined as the lowest concentration of drug yielding no growth, a slight haze, or sparsely isolated colonies on the inoculum spot as compared to the growth control.

For data set [2], the system named is Escherichia coli JUHL. Described as above. It counts as cell-based. The following applies: Table 1, Assay A, BHI agar, 35-37° C., about 20 to 24 hours; code D = Escherichia coli JUHL; unit assumed. On the procedure: as §1, §2, §3, §4
The subject of data set [3] is Haemophilus influenzae DILL AMP R. The description is as above. The format is cell-based. The conditions noted are these: Table 1, Assay A, BHI agar, 35-37° C., about 20 to 24 hours; code E = Haemophilus influenzae DILL AMP R; unit assumed. Here is the method: as §1, §2, §3, §4
The subject of data set [4] is Moraxella catarrahalis 2604. Described as above. It counts as cell-based. The conditions noted are these: Table 1, Assay A, BHI agar, 35-37° C., about 20 to 24 hours; code C = Moraxella catarrahalis 2604; unit assumed. Here is the method:
as §1, §2, §3, §4

Data set [5] relates to Staphylococcus aureus ATCC 6538P. Described as above. The format is cell-based. The following applies: Table 1, Assay A, BHI agar, 35-37° C., about 20 to 24 hours; code A = Staphylococcus aureus ATCC 6538P; unit assumed. Here is the method:
as §1, §2, §3, §4

Data set [6] relates to Streptococcus pneumoniae ATCC 6303. The description is as above. The format is cell-based. The conditions noted are these: Table 1, Assay A, BHI agar, 35-37° C., about 20 to 24 hours; code F = Streptococcus pneumoniae ATCC 6303; unit assumed. Here is the method: as §1, §2, §3, §4
Data set [7] has as its system Enterococcus faecalis PIU 1967. The data set can be described thus: Assay B: in vitro antibacterial activity, broth microdilution MIC (NCCLS). It counts as cell-based. The conditions noted are these: Table 2, Assay B, cation-adjusted Mueller Hinton broth, 35° C., 16 to 20 hr; code B = Enterococcus faecalis PIU 1967; unit assumed. An outline of the steps:
(§5)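 NCCLS broth microdilution: cation-adjusted MH broth, ~5×10^5 CFU/mL, 35° C, 16–20 hr, visual endpoint of complete growth inhibition. Fastidious strains incubated 20–24 hr, S. pneumoniae with 3% lysed horse blood, H. influenzae with yeast extract, hematin and NAD.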
On the technique in general: In broth dilution the organism is exposed to a series of concentrations in liquid medium.

The subject of data set [8] is Escherichia coli JUHL. The data set is described as above. The format is cell-based. The conditions noted are these: Table 2, Assay B, cation-adjusted Mueller Hinton broth, 35° C., 16 to 20 hr; code D = Escherichia coli JUHL; unit assumed. In a few lines:
as §5

In data set [9] the test system is Haemophilus influenzae DILL AMP R. The description is as above. It counts as cell-based. The following applies: Table 2, Assay B, Mueller Hinton broth with yeast extract, hematin and NAD, 20 to 24 hr; code E = Haemophilus influenzae DILL AMP R; unit assumed. In a few lines: as §5
In data set [10] the test system is Staphylococcus aureus ATCC 6538P. The data set is described as above. The format is cell-based. The following applies: Table 2, Assay B, cation-adjusted Mueller Hinton broth, 35° C., 16 to 20 hr; code A = Staphylococcus aureus ATCC 6538P; unit assumed. An outline of the steps: as §5
Data set [11] deals with Streptococcus pneumoniae ATCC 6303. Described as above. The following applies: Table 2, Assay B, Mueller Hinton broth with 3% lysed horse blood, 20 to 24 hr; code F = Streptococcus pneumoniae ATCC 6303; unit assumed. The format is cell-based. In a few lines: as §5

The molecule `Br.CC1Cc2sc(-c3ccc4c(=O)c(C(=O)O)cn(C5CC5)c4c3)cc2CN1` (stereo not shown) [Example 13, 1-cyclopropyl-7-(6-methyl-4,5,6,7-tetrahydrothieno[3,2-c]pyridin-2-yl)-4-oxo-1,4-dihydro-3-quinolinecarboxylic acid hydrobromide] showed an Antibacterial Activity (MIC's), B in data set [1] of 0.2 µg/mL. This molecule registered an Antibacterial Activity (MIC's), D in the data set with Escherichia coli JUHL [2] of 0.2 µg/mL. This molecule returned an Antibacterial Activity (MIC's), E in data set [3] of 0.25 µg/mL. Further, in data set [4], the Antibacterial Activity (MIC's), C was 0.2 µg/mL. Besides, the Antibacterial Activity (MIC's), A in data set [5] came out at 0.1 µg/mL. In addition, in [6], the Antibacterial Activity (MIC's), F came to 0.25 µg/mL.
With `Br.CC1(C)CNCc2cc(-c3ccc4c(=O)c(C(=O)O)cn(C5CC5)c4c3OC(F)F)sc21` [Example 28], the Antibacterial Activity (MIC's), B in data set [1] was 0.78 µg/mL. Further, the Antibacterial Activity (MIC's), D with Escherichia coli JUHL [2] amounted to 0.78 µg/mL. The Antibacterial Activity (MIC's), E in data set [3] is 0.25 µg/mL. The Antibacterial Activity (MIC's), C in data set [4] came to 0.2 µg/mL. The molecule further returned an Antibacterial Activity (MIC's), A in data set [5] of 0.2 µg/mL. Moreover, in data set [6], the Antibacterial Activity (MIC's), F came out at 1 µg/mL.
On to `CC1CNCc2sc(-c3ccc4c(=O)c(C(=O)O)cn(C5CC5)c4n3)cc21.Cl` (stereo not shown) [Example 32, 1-cyclopropyl-7-(4-methyl-4,5,6,7-tetrahydrothieno(2,3-c)pyrdin-2-yl)-4-oxo-1,4-dihydro[1,8]naphthyridine-3-carboxylic acid hydrochloride], for which, in data set [1], the Antibacterial Activity (MIC's), B worked out at 0.39 µg/mL. The Antibacterial Activity (MIC's), D in the data set with Escherichia coli JUHL [2] was found to be 0.39 µg/mL. In addition, the Antibacterial Activity (MIC's), E in data set [3] stood at 0.25 µg/mL. The molecule also returned an Antibacterial Activity (MIC's), C in [4] of 0.2 µg/mL. The molecule further displayed an Antibacterial Activity (MIC's), A in data set [5] of 0.2 µg/mL. This molecule also registered an Antibacterial Activity (MIC's), F in data set [6] of 1 µg/mL.
In data set [1], `O=C(O)c1cn(C2CC2)c2nc(-c3cc4c(s3)CCCC4O)c(F)cc2c1=O` (stereo not shown) [Example 35, 1-cyclopropyl-6-fluoro-7-(4-hydroxy-4,5,6,7-tetrahydro-1-benzothien-2-yl)-4-oxo-1,4-dihydro[1,8]naphthyridine-3-carboxylic acid] came in with an Antibacterial Activity (MIC's), B of 0.78 µg/mL. This molecule also had an Antibacterial Activity (MIC's), D in the data set with Escherichia coli JUHL [2] of 0.78 µg/mL. The Antibacterial Activity (MIC's), E in [3] worked out at 0.06 µg/mL. In data set [4], this molecule returned an Antibacterial Activity (MIC's), C of 0.05 µg/mL. Further, in [5], the Antibacterial Activity (MIC's), A turned out to be 0.05 µg/mL. Also, in data set [6], the Antibacterial Activity (MIC's), F worked out at 0.5 µg/mL.
Take `COc1c(-c2cc3c(s2)SCCC3N)ccc2c(=O)c(C(=O)O)cn(C3CC3)c12.Cl` (stereo not shown) [Example 37, 7-(4-amino-5,6-dihydro-4H-thieno[2,3-b]thiopyran-2-yl)-1-cyclopropyl-8-methoxy-4-oxo-1,4-dihydro-3-quinolinecarboxylic acid hydrochloride]: the Antibacterial Activity (MIC's), B in data set [1] came to 0.1 µg/mL. In addition, the Antibacterial Activity (MIC's), D with Escherichia coli JUHL [2] was 0.2 µg/mL. In data set [3], this molecule displayed an Antibacterial Activity (MIC's), E of 0.125 µg/mL. Also, the Antibacterial Activity (MIC's), C in data set [4] was found to be 0.1 µg/mL. In data set [5], this molecule had an Antibacterial Activity (MIC's), A of 0.05 µg/mL. Besides, in data set [6], the Antibacterial Activity (MIC's), F stood at 0.25 µg/mL.
The molecule `COc1c(-c2cc3c(s2)CC(O)C3)ccc2c(=O)c(C(=O)O)cn(C3CC3)c12` (stereo not shown) [Example 45, 1-cyclopropyl-7-(5-hydroxy-5,6-dihydro-4H-cyclopentarblthien-2-yl)-8-methoxM-4-oxo-1,4-dihydro-3-quinolinecarboxylic acid] had an Antibacterial Activity (MIC's), B in data set [1] of 0.2 µg/mL. In the data set on Escherichia coli JUHL [2], this molecule had an Antibacterial Activity (MIC's), D of 0.39 µg/mL. The molecule also displayed an Antibacterial Activity (MIC's), E in data set [3] of 0.03 µg/mL. The molecule also had an Antibacterial Activity (MIC's), C in data set [4] of 0.1 µg/mL. The molecule also displayed an Antibacterial Activity (MIC's), A in data set [5] of 0.05 µg/mL. The molecule also gave an Antibacterial Activity (MIC's), F in [6] of 0.25 µg/mL.
`COc1c(-c2cc3c(s2)CC(O)CC3)ccc2c(=O)c(C(=O)O)cn(C3CC3)c12` (stereo not shown) [Example 47, 1-cyclopropyl-7-(6-hydroxy-4,5,6,7-tetrahydro-1-benzothien-2-yl)-8-methoxy-4-oxo-1,4-dihydro-3-quinolinecarboxylic acid]: the Antibacterial Activity (MIC's), B in data set [1] stood at 0.2 µg/mL. In addition, in the data set on Escherichia coli JUHL [2], the Antibacterial Activity (MIC's), D was found to be 1.56 µg/mL. The Antibacterial Activity (MIC's), E in [3] came to 0.5 µg/mL. Moreover, the Antibacterial Activity (MIC's), C in data set [4] turned out to be 0.02 µg/mL. Besides, the Antibacterial Activity (MIC's), A in data set [5] worked out at 0.01 µg/mL. In data set [6], this molecule gave an Antibacterial Activity (MIC's), F of 0.5 µg/mL.
With `COc1c(-c2cc3c(s2)CCCC3=O)ccc2c(=O)c(C(=O)O)cn(C3CC3)c12` [Example 50, 1-cyclopropyl-8-methoxy-4-oxo-7-(4-oxo-4,5,6,7-tetrahydro-1-benzothien-2-yl)-1,4-dihydro-3-quinolinecarboxylic acid], the melting point is 266 to 267 °C.
Regarding `COc1c(-c2cc3c(s2)C(N)CCC3)ccc2c(=O)c(C(=O)O)cn(C3CC3)c12.Cl` (stereo not shown) [Example 201, 7-(7-amino-4,5,6,7-tetrahydro-1-benzothien-2-yl)-1-cyclopropyl-8-methoxy-4-oxo-1,4-dihydro-3-quinolinecarboxylic acid hydrochloride], the melting point was in the range of 174 to 178 °C. The molecule also registered an Antibacterial Activity (MIC's), B in data set [7] of 0.06 µg/mL. Besides, the Antibacterial Activity (MIC's), D with Escherichia coli JUHL [8] is 0.125 µg/mL. Further, the Antibacterial Activity (MIC's), E in data set [9] was 0.03 µg/mL. Besides, in data set [10], the Antibacterial Activity (MIC's), A worked out at 0.015 µg/mL. For the same molecule, the Antibacterial Activity (MIC's), F in [11] stood at 0.03 µg/mL.
Take `COc1c(-c2cc3c(s2)CCC(C)(C)C3O)ccc2c(=O)c(C(=O)O)cn(C3CC3)c12` (stereo not shown) [Example 213, 1-cyclopropyl-7-(4-hydroxy-5,5-dimethyl-4,5,6,7-tetrahydro-1-benzothien-2-yl)-8-methoxy-4-oxo-1,4-dihydro-3-quinolinecarboxylic acid]: the melting point was 93 to 94 °C. The molecule also had an Antibacterial Activity (MIC's), B in data set [7] of 0.5 µg/mL. In the data set on Escherichia coli JUHL [8], this molecule showed an Antibacterial Activity (MIC's), D of 0.5 µg/mL. In addition, the Antibacterial Activity (MIC's), E in [9] was 0.25 µg/mL. The Antibacterial Activity (MIC's), A in data set [10] was found to be 0.03 µg/mL. This molecule displayed an Antibacterial Activity (MIC's), F in [11] of 0.5 µg/mL.
For `COc1c(-c2cc3c(s2)C(N)CCC3)c(F)cc2c(=O)c(C(=O)O)cn(C3CC3)c12.Cl` (stereo not shown) [Example 228, 7-(7-amino-4,5,6,7-tetrahydro-1-benzothien-2-yl)-1-cyclopropyl-6-fluoro-8-methoxy-4-oxo-1,4-dihydro-3-quinolinecarboxylic acid hydrochloride], the melting point was 148 to 153 °C (dec.). Besides, the Antibacterial Activity (MIC's), B in data set [7] is 0.03 µg/mL. Also, in the data set with Escherichia coli JUHL [8], the Antibacterial Activity (MIC's), D stood at 0.06 µg/mL. In addition, in [9], the Antibacterial Activity (MIC's), E came out at 0.015 µg/mL. The same molecule registered an Antibacterial Activity (MIC's), A in data set [10] of 0.008 µg/mL. In [11], this molecule yielded an Antibacterial Activity (MIC's), F of 0.015 µg/mL.
In the case of `COc1c(-c2cc3c(s2)CCC(C)(C)/C3=N\O)ccc2c(=O)c(C(=O)O)cn(C3CC3)c12` [Example 233, 1-cyclopropyl-7-((4E/Z)-4-(hydroxyimino)-5,5-dimethyl-4,5,6,7-tetrahydro-1-benzothien-2-yl)-8-methoxy-4-oxo-1,4-dihydro-3-quinolinecarboxylic acid], the melting point was in the range of 135 to 138 °C. For the same molecule, the Antibacterial Activity (MIC's), B in data set [7] turned out to be 0.5 µg/mL. The molecule also yielded an Antibacterial Activity (MIC's), D in the data set on Escherichia coli JUHL [8] of 8 µg/mL. The Antibacterial Activity (MIC's), E in data set [9] came out at 0.5 µg/mL. The Antibacterial Activity (MIC's), A in [10] stood at 0.03 µg/mL. For the same molecule, in data set [11], the Antibacterial Activity (MIC's), F turned out to be 2 µg/mL.
